Patent publication US12509451B2, “Heteroaryl amide inhibitors of CD38” (NAPA THERAPEUTICS LTD., priority 2020, dated 2025)

Columns and labels:
[1] = biological target: T1, human CD38 enzyme in primary human CD4+ T cells (Homo sapiens, UniProt P28907); assay: NAD+ hydrolase activity assay in primary human activated CD4+ T cells (Assay 7); assay type: cell-based; conditions: primary human CD4+ T cells activated with anti-CD3/CD28
T1 construct: whole primary human CD4+ T cells (from healthy donors); endogenous in cells
T1 sequence (P28907 1-300): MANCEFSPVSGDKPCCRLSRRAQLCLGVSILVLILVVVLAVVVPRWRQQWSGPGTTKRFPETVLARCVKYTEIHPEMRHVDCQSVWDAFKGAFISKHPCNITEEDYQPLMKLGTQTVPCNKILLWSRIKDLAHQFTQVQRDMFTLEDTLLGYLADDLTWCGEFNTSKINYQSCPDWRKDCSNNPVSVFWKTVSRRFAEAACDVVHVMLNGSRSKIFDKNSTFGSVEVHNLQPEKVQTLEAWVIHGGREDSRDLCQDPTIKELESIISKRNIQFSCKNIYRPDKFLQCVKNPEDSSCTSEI
Method: The in vitro potency of Compound 35 against the human CD38 enzyme was determined by a fluorescence-based NAD+ hydrolase activity assay using the NAD+ analog nicotinamide 1,N^6-etheno-adenine dinucleotide (εNAD+) as substrate. The assay utilized: 1) whole primary human CD4+ T cells (from healthy donors) activated with anti-CD3/CD28 antibodies and expressing human CD38; or II) whole primary human macrophages (from healthy donors) stimulated with LPS to polarize in a pro-inflammatory M1 state expressing human CD38. The cells were incubated in the presence of 8 different concentrations of Compound 35 for 10 minutes and the reaction was started adding the substrate εNAD+. The emission of fluorescence was measured at 410-20 nm at 37° C. every minute for 1 hr. The NAD+ hydrolase activity was calculated as the slope of the linear portion of the fluorescence-time curve and used to calculate the IC50 value.

[2] = test system: human liver microtissues (hepatocytes, Kupffer cells, endothelial and stellate cells) in NASH induction media; assay: Human 3D NASH model (InSphero Human 3D InSight), release of inflammatory markers; assay type: cell-based; conditions: supernatant, day 5
Method: The efficacy of Compound 35 was also determined in a NASH model (see InSphero Human 3D InSight™ Brunswick, ME) to investigate the effect of the molecule on the pathophysiological phenotype of NASH such as release of inflammatory markers. The microtissue model used is a co-culture of 4 different cell types of human liver cells (hepatocytes, Kupffer cells, endothelial and stellate cells) cultured for 10 days in a NASH induction media containing FFA, LPS and high levels of sugars. In the LEAN group the microtissues were cultured for 10 days in physiological-like medium. The reference compound, Selonsertib, a selective ASK1 inhibitor, was used as a down regulator of inflammatory markers. Cytokine and chemokine release in the supernatant were measured at day 5 using Magnetic Luminex® Assay (R&D Systems).

[3] = biological target: T2, recombinant rat CD38 Protein (Rattus norvegicus, UniProt Q64244); assay: Fluorescence-based NAD+ hydrolase activity assay with rat recombinant CD38 protein (Assay 6); assay type: biochemical; conditions: read-out: Assay 6 Arithmetic mean IC50
T2 construct: purchased Sino Biological
T2 sequence (Q64244 1-303): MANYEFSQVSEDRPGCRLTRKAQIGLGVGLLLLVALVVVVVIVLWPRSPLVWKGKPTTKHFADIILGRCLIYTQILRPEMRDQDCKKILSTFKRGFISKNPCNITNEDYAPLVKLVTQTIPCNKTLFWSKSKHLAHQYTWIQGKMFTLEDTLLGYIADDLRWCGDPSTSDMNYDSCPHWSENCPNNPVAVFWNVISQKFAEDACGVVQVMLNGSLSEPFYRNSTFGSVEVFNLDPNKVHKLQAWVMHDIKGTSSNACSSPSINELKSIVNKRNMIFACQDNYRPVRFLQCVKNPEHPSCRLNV
Method: This protocol was modified from the following references: Muller et al. (1983); Schultz et al. (2018); Matalonga et al. (2017); and de Oliveira et al. (2018), supra.
NAD+ hydrolase activity of the rat recombinant CD38 protein treated with test compounds was measured using a fluorescence-based assay. Briefly, recombinant rat CD38 Protein (Sino Biological) was resuspended in 44 μl/well of Sucrose-Tris Buffer (Sucrose 0.25 M, Tris pH 7.4 40 mM) and plated in a 96 well black plate (CORNING) at a density of 2.5 ng/well.
Each test compound was received in a powder state and dissolved in DMSO as a 25 mM stock solution. Each test compound was serially diluted in order to generate a dose-response curve. […]
The reaction was started adding nicotinamide 1,N^6-etheno-adenine dinucleotide (Sigma Aldrich) to reach a final concentration of 80 µM. The samples were excited at 321-15 nm and the emission of fluorescence was measured at 410-20 nm at 37° C. every minute for 1 hr in a Clariostar Microplate® reader (BMG LABTECH). NAD+ hydrolase activity was calculated as the slope of the linear portion of the fluorescence-time curve using the MARS data analysis software (BMG LABTECH). The data were uploaded in the Collaborative Drug Design (CDD) Software and for each compound the IC50 was calculated by the software. […] For each plate, the z-factor was also calculated as a plate quality using the CDD software.

IC50 [1] | IC50 [3] | SMILES | release of NASH-induced inflammatory marker IL-8 [2] | release of NASH-induced inflammatory marker IP-10/CXCL-10 [2] | release of NASH-induced inflammatory marker MIP-1α/CCL3 [2] | release of NASH-induced inflammatory marker TNFα [2]
0.179 nM |  | COc1cc(C(=O)Nc2ccnc(C(F)(F)F)c2)nc(-n2ccnc2)c1 [Compound 35, 6-(1H-imidazol-1-yl)-4-methoxy-N-(2-(trifluoromethyl)pyridin-4-yl)picolinamide] | effectiveness in downregulating | effectiveness in downregulating | effectiveness in downregulating | effectiveness in downregulating
 | 1 to 50 nM | COCCOc1cc(C(=O)Nc2ccnc(C(F)(F)F)c2)nc(-n2ccnc2)n1 [Compound 39, 2-(1H-imidazol-1-yl)-6-(2-methoxyethoxy)-N-(2-(trifluoromethyl)pyridin-4-yl)pyrimidine-4-carboxamide] |  |  |  | 
